Reference: patent US11702417B2, “Compounds for improving mRNA splicing” (The General Hospital Corporation, priority 2015, dated 2023)
Like-named read-outs stand apart in the source and are kept apart here.

Test system: FD (familial dysautomonia) IKBKAP minigene, exon 20 inclusion, in HEK293T cells
Test: Primary splicing assay (FD IKBKAP minigene, Firefly/Renilla luciferase reporter in HEK293T)
Type: cell-based, human
Details: for EC (maximum kinetin efficacy) / Emax: Homo sapiens, HEK-293T; for EC (maximum kinetin efficacy): HEK293T, read-out: ECk (compound concentration at which the maximum kinetin efficacy (200 μM) is reached); for ECk, Firefly only: Renilla interference/Firefly only (footnote c)
Procedure: As used herein, the expression “ECk” refers to the compound concentration at which the maximum kinetin efficacy (200 μM) is reached.
Splicing analysis was made possible by using an FD (familial dysautomonia) IKBKAP minigene which contained exon 19 through exon 21, including intervening introns, and also the T→C Thymine to cytosine transition located 6 base-pairs from the end of IKBKAP exon 20; See SEQ ID NO:3 for the complete sequence of plasmid pcDNA3.1/V5HisTOPO with Renilla-Familial Dysautonomia minigene-Firefly. Firefly luciferase (SEQ ID NO:14) was utilized as a splicing reporter, located downstream of exon 21, and Renilla luciferase (SEQ ID NO:13) was used as a control, located upstream of exon 19. The sequence of exon 19 is presented as SEQ ID NO:7; the Intron between Exon 19 and Exon 20 is SEQ ID NO:8; exon 20 is SEQ ID NO:9; the intron between […]; exon 21 is SEQ ID NO: 11, and the spliced sequence of exons 19-20-21 is SEQ ID NO:12. HEK293T cells were plated in a 6-well plate 24 hours prior to transfection. Transfection was carried out using a mixture of Opti-MEM (GIBCO ref. 31985), IKBKAP minigene, and Fugene HID (PROMEGA ref. E2311), incubated in DMEM media containing HEK293T cells at 37° C. The ratio of Opti-MEM, minigene, and Fugene was kept at approximately 9:1.5:1, with a total volume of 150 μL of transfection mixture applied per well.
After 4 hours of transfection, the cells were then plated in a 96-well plate coated with poly-L-lysine (SIGMA cat.P4707) for treatment scheduled 24 hours later. […] After 24 hours of treatment, cells were washed in the poly-L-lysine coated 96-well plate using PBS and subsequently harvested using Passive Lysis Buffer (Promega cat.E196). Cell lysate was transferred to a black and white 96-well plate and analyzed for splicing correction using a Glomax luminometer (PROMEGA GloMax® 96 Microplate Luminometer w/Dual Injectors cat.E6521) and Promega Dual Glo Firefly and Stop and Glo Renilla reagents (Cat.E196). The compound's ability to correct splicing and promote exon 20 inclusion was marked by an increase in Firefly signal. Renilla signal, which is independent of exon 20 inclusion, was used to correct for cell number. Using the ratio of Firefly to Renilla signal, a dose response curve was produced, which referenced kinetin and DMSO Firefly/Renilla ratios as positive and negative controls, respectively.

[1] = Firefly/Renilla ratio, 24 hours of treatment
[2] = max efficacy in Primary Assay, Firefly/Renilla ratio, kinetin and DMSO as positive and negative controls, 24 hours of treatment, read-out: Emax (%)
[3] = max efficacy, Firefly only, footnote c: Renilla interference/Firefly only, read-out: Emax (%) Firefly only

Compound	EC (maximum kinetin efficacy) [1] [µM]	Emax [2] [%]	other results
FCCn1ccc2c(NCc3ccncn3)nc(Cl)nc21 [(191)]	5.92	231	–
Fc1c[nH]c2nc(Cl)nc(NCc3ccncn3)c12 [(112)]	–	–	Emax [3]: 111%; ECk, Firefly only: 5.33 µM⁻¹
O=C(O)c1ccc(CNc2nc(Cl)nc3[nH]cc(F)c23)cc1 [(117)]	–	23	–
CNc1nc2c(NCc3ccco3)nc(Cl)nc2n1CCO [(202)]	9.35	137	–
Cc1cc2c(NCc3ccncc3)nc(Cl)nc2[nH]1 [(119)]	11.2	114	–
COc1cc(CNc2nc(Cl)nc3[nH]cnc23)ccn1 [(241)]	–	13	–
CC(C)(C)OC(=O)N1Cc2nc(Cl)nc(NCc3nccs3)c2C1 [(509)]	–	40.8	–
CNCc1cc2c(NCc3ccco3)nc(Cl)nc2[nH]1 [(181)]	8.4	122	–
Nc1nc2c(NCc3ccco3)nc(Cl)nc2[nH]1 [(146)]	9.41	154	–
Clc1nc(NCc2nccs2)c2nc(OCC3CCC3)[nH]c2n1 [(324)]	0.16	226	–
Clc1nc(NCc2nccs2)c2nc(OCc3ccccn3)[nH]c2n1 [(500)]	3	141	–
c1nc(NCc2cnn[nH]2)c2nc[nH]c2n1 [(406)]	–	20	–
Clc1nc(NCc2nccs2)c2nc(C3CCC3)[nH]c2n1 [(240)]	18.2	124	–
FC(F)COc1nc2c(NCc3ccncc3)nc(Cl)nc2[nH]1 [(382)]	1.31	193	–
Clc1nc(NCc2ccco2)c2cn[nH]c2n1 [(85)]	–	96	–
Clc1nc(NCc2ccco2)c2nc(C3CCC3)[nH]c2n1 [(231)]	–	77	–
Clc1nc(NCc2ccco2)c2ncn(Cc3ccncc3)c2n1 [(72)]	–	39	–
Cc1nc2ncnc(NCc3ccco3)c2[nH]1 [(87)]	–	46	–
FC(F)(F)COc1nc2c(NCc3ccncn3)nc(Cl)nc2[nH]1 [(331)]	0.69	209	–
Cc1cn(CCO)c2nc(Cl)nc(NCc3ccncn3)c12 [(128)]	15.4	155	–

Compound	EC (maximum kinetin efficacy) [1] [µM]	Emax [2] [%]	other results
Clc1cc(NCc2ccco2)n2ccnc2n1 [(288)]	–	56	–
Clc1nc2c(c(NCc3ccco3)n1)CCC2 [(466)]	3.66	221	–
COc1nc2c(NCc3ccncc3)nc(Cl)nc2[nH]1 [(184)]	3.62	169	–
CNCc1c[nH]c2nc(Cl)nc(NCc3ccco3)c12 [(177)]	–	60	–
FC(F)COc1nc2c(NCc3cscn3)nc(Cl)nc2[nH]1 [(395)]	1.8	180	–
Clc1nc(NCc2ccco2)c2nc(C3CC3)[nH]c2n1 [(95)]	122	103	–
Cc1noc(-c2cc3c(NCc4ccco4)nc(Cl)nc3[nH]2)n1 [(246)]	–	22	–
Clc1nc(NCc2nccs2)c2nc(OCc3cccnc3)[nH]c2n1 [(506)]	1.14	144	–
Fc1c[nH]c2nc(Cl)nc(NCc3ccco3)c12 [(81)]	3.08	–	–
NC(=O)c1cc2c(NCc3ccco3)nc(Cl)nc2[nH]1 [(188)]	11.7	145	–
NC(=O)c1c[nH]c2nc(Cl)nc(NCc3ccco3)c12 [(165)]	–	59	–
Fc1cnccc1CNc1nc(Cl)nc2[nH]cnc12 [(227)]	23.3	163	–
Clc1nc(NCc2ccncn2)c2c(Cl)c[nH]c2n1 [(210)]	69.2	104	–
Cc1[nH]c2nc(Cl)nc(NCc3ccncc3)c2c1F [(201)]	–	27	–
Cc1cnccc1CNc1nc(Cl)nc2[nH]cnc12 [(268)]	–	19	–
CNCCn1ccc2c(NCc3ccco3)nc(Cl)nc21 [(213)]	–	36	–
Fc1nc(NCc2nccs2)c2cc[nH]c2n1 [(379)]	–	95	–
CNc1nc2c(NCc3ccncn3)nc(Cl)nc2[nH]1 [(247)]	5.41	215	–
FC(F)(F)CN1CCC(n2ccc3c(NCc4ccco4)nc(Cl)nc32)CC1 [(200)]	–	11	–
Cc1cnccc1CNc1nc(Cl)nc2[nH]ccc12 [(263)]	27.4	105	–

Compound	EC (maximum kinetin efficacy) [1] [µM]	Emax [2] [%]	other results
Cc1cn(CCO)c2nc(Cl)nc(NCc3ccncc3)c12 [(121)]	17.3	189	–
CNC(=O)c1nc2c(NCc3ccncc3)nc(Cl)nc2[nH]1 [(250)]	62.8	63	–
O=c1[nH]c2nc(Cl)nc(NCc3nccs3)c2[nH]1 [(377)]	7.21	101	–
O=C(O)Cn1ccc2c(NCc3ccco3)nc(Cl)nc21 [(167)]	–	37	–
Fc1nc(NCc2ccco2)c2nc[nH]c2n1 [(58)]	17.9	155	–
c1coc(CNc2ncnc3[nH]ccc23)c1 [(3)]	–	59	–
COc1nc2c(NCc3ccco3)nc(Cl)nc2[nH]1 [(124)]	2.41	180	–
FCCn1ccc2c(NCc3ccco3)nc(Cl)nc21 [(150)]	–	–	Emax (max efficacy, value marked (RT-PCR), footnote a: Firefly inhibitor, read-out: Emax (%) (RT-PCR)): 320%; ECk (RT-PCR) (determined by RT-PCR, footnote a Firefly inhibitor, footnote b Renilla interference): 1 to 10 µM
Cc1cn(CCO)c2nc(Cl)nc(NCc3nccs3)c12 [(125)]	6.52	225	–
CC(C)(C)OCCOc1nc2c(NCc3nccs3)nc(Cl)nc2[nH]1 [(482)]	11.1	99.1	–
Cc1cc2c(NCc3ccco3)nc(Cl)nc2n1CCO [(154)]	22.2	151	–
Clc1nc(NCc2ccncc2)c2nc[nH]c2n1 [(134)]	6.25	174	–
Clc1cc(NCc2ccco2)n2nccc2n1 [(322)]	–	21	–
Clc1nc(NCc2ccncn2)c2nc(OCc3nccs3)[nH]c2n1 [(340)]	0.95	220	–
COCCOc1nc2c(NCc3ccco3)nc(Cl)nc2[nH]1 [(293)]	1.78	169	–
Cn1cnc2nc(Cl)nc(NCc3ccncc3)c21 [(313)]	7.48	102	–
Clc1cc(NCc2ccco2)c2nc[nH]c2n1 [(198)]	5.01	125	–
OCCn1cc(F)c2c(NCc3ccco3)nc(Cl)nc21 [(111)]	–	–	Emax [3]: 191%; ECk, Firefly only: 9.3 µM⁻¹
OCCCNc1nc2c(NCc3ccco3)nc(Cl)nc2[nH]1 [(225)]	21.1	114	–
O=C1CCCN1CCOc1nc2c(NCc3ccco3)nc(Cl)nc2[nH]1 [(396)]	–	38.7	–
